Measured values reported in US20230002736A1, “ENDODERM DIFFERENTIATION FROM PLURIPOTENT STEM CELL LINES” (priority 2019, published 2023).
Entries after “also recorded” stand apart in the source; their conditions may differ. Read-outs that look alike come from different tables or passages of the source.

Key:
iPSC lines [1] = assay type: cell-based; details: protocol without doxycycline
iPSC line AS7192 = assay: Endoderm induction compound comparison, cell number at day 7, line AS7192; assay type: cell-based, human; details: 1 μM concentration
Protocol: FIG. 2. Doxycycline Enhanced Endoderm. A: Immunofluorescence and bright-field images showing induction of iPSC line 1023-5 to definitive endoderm (DE) with Hoechst 33342 nuclear staining in blue, and antibody staining in green for OCT3/4, FOXA, HNF1p and CXCR4 with AlexaFluor 488 secondary (green) antibody. […] (scale bar=[…]); B: Compound Screen showing other antibiotics and other compounds affecting the mitochondria were compared to doxycycline. […] The number of cells is shown measured seven days after induction compared to the plating density at day 0 (n=2); C: Comparison of Tetracycline Derivatives in iPSC lines AG02261. […] The number of cells is shown measured seven days after induction compared to the plating density at day 0. […] FIG. 9. Comparison of Tetracycline Derivatives and Other Compounds in additional cell line. A: Induction of iPSC lines AS7192 was performed. […] The number of cells was measured seven days after induction compared to the plating density at day 0. […] Induction of Definitive Endoderm (days 1-7). iPSCs were plated on 6-, 12-, or 96-well Matrigel-coated plates at different densities for differentiation in iPSC media containing 10 μM Y-27632 and 2 μM doxycycline. For example, typical plating density in a single well of a 6-well plate was 500,000 cells or 20,000 cells per well for 96-well plates. […]

iPSC line AG02261 = assay: Endoderm induction compound comparison, cell number at day 7, line AG02261; assay type: cell-based, human; details: for response in compound screen, number of cells seven days after induction: cell line AG02261, FIG. 2B; for effect on endoderm induction at high concentration: AG02261, 10 μM concentration
Protocol: FIG. 2. Doxycycline Enhanced Endoderm. A: Immunofluorescence and bright-field images showing induction of iPSC line 1023-5 to definitive endoderm (DE) with Hoechst 33342 nuclear staining in blue, and antibody staining in green for OCT3/4, FOXA, HNF1p and CXCR4 with AlexaFluor 488 secondary (green) antibody. […] (scale bar=[…]); B: Compound Screen showing other antibiotics and other compounds affecting the mitochondria were compared to doxycycline. […] The number of cells is shown measured seven days after induction compared to the plating density at day 0 (n=2); C: Comparison of Tetracycline Derivatives in iPSC lines AG02261. […] The number of cells is shown measured seven days after induction compared to the plating density at day 0. […] Induction of Definitive Endoderm (days 1-7). iPSCs were plated on 6-, 12-, or 96-well Matrigel-coated plates at different densities for differentiation in iPSC media containing 10 μM Y-27632 and 2 μM doxycycline. For example, typical plating density in a single well of a 6-well plate was 500,000 cells or 20,000 cells per well for 96-well plates. The differentiation process consisted of one week of RPMI media supplemented with Gem21 NeuroPlex without insulin at 1× (supplied at 50×, Gemini Bio-Products West Sacramento, Calif., catalog #400-962, or supplemented with Gibco B27 without insulin at 1×), Glutagro at 1× (Corning, Manassas, Va., catalog #25-015-CI, non-essential amino acids at 1× (Gibco, catalog #11-140-050), sodium butyrate (0.5 mM, Sigma Aldrich, catalog #B5887) and recombinant human Activin A (100 ng/mL, Peprotech, Rocky Hill, N.J., catalog #120-14E) for 7 days. On day 1, 2% KnockOut Serum Replacement (KSR; Gibco Catalog #10828028), CHIR-99021 (10 ng/mL, Selleckchem catalog #S2924), PI-103 (10 ng/mL,Selleckchem catalog #S1038), recombinant human BMP4 (10 ng/mL, Peprotech catalog #120-05ET) and FGF2 (20 ng/mL, Peprotech catalog #100-18B) were added to the media. On day 2, 1% KSR, PI-103 (10 ng/mL) and BMP4 (10 ng/mL) and FGF2 (20 ng/mL) and on day 3, 0.2% KSR and PI-103 (10 ng/mL) were added to the media. Doxycycline hyclate (Acros Organics catalog #446061000) was added throughout definitive endoderm induction starting on day 0 (passage day) at various concentrations, as described herein, with a standard concentration being 2 μM. These steps can be performed at normal room oxygen at about 20% or at low oxygen between 4 and 6%.

iPSC lines [2] = assay type: cell-based; details: for ability to enhance survival of cells during induction to endoderm, other antibiotic classes compared to doxycycline: FIGS. 2B and 9B; for effect of adding Y-27632 to the protocol including doxycycline: cell lines still difficult to induce
Protocol: Induction of Definitive Endoderm (days 1-7). iPSCs were plated on 6-, 12-, or 96-well Matrigel-coated plates at different densities for differentiation in iPSC media containing 10 μM Y-27632 and 2 μM doxycycline. For example, typical plating density in a single well of a 6-well plate was 500,000 cells or 20,000 cells per well for 96-well plates. The differentiation process consisted of one week of RPMI media supplemented with Gem21 NeuroPlex without insulin at 1× (supplied at 50×, Gemini Bio-Products West Sacramento, Calif., catalog #400-962, or supplemented with Gibco B27 without insulin at 1×), Glutagro at 1× (Corning, Manassas, Va., catalog #25-015-CI, non-essential amino acids at 1× (Gibco, catalog #11-140-050), sodium butyrate (0.5 mM, Sigma Aldrich, catalog #B5887) and recombinant human Activin A (100 ng/mL, Peprotech, Rocky Hill, N.J., catalog #120-14E) for 7 days. On day 1, 2% KnockOut Serum Replacement (KSR; Gibco Catalog #10828028), CHIR-99021 (10 ng/mL, Selleckchem catalog #S2924), PI-103 (10 ng/mL,Selleckchem catalog #S1038), recombinant human BMP4 (10 ng/mL, Peprotech catalog #120-05ET) and FGF2 (20 ng/mL, Peprotech catalog #100-18B) were added to the media. On day 2, 1% KSR, PI-103 (10 ng/mL) and BMP4 (10 ng/mL) and FGF2 (20 ng/mL) and on day 3, 0.2% KSR and PI-103 (10 ng/mL) were added to the media. Doxycycline hyclate (Acros Organics catalog #446061000) was added throughout definitive endoderm induction starting on day 0 (passage day) at various concentrations, as described herein, with a standard concentration being 2 μM. These steps can be performed at normal room oxygen at about 20% or at low oxygen between 4 and 6%.

Question: With `Cc1c[nH]c(-c2cnc(NCCNc3ccc(C#N)cn3)nc2-c2ccc(Cl)cc2Cl)n1` [CHIR99021] as the molecule, how does the “effect on number of cells in endoderm induction” value (iPSC lines [1]; addition in the first 24 hours) read?
Answer: Its value is “improved the number of cells in multiple different cell lines”.

Question: For `CN(C)[C@@H]1C(O)=C(C(N)=O)C(=O)[C@@]2(O)C(O)=C3C(=O)c4c(O)ccc(Cl)c4[C@@H](O)[C@H]3C[C@@H]12` [Demeclocycline, demeclocycline], which “ability to rescue endoderm induction compared to doxycycline” value (iPSC line AS7192) is on record?
Answer: Its value is “to some extent”.

Question: For `N=C(N)SCCc1ccc(OCc2ccc([N+](=O)[O-])cc2)cc1` [KB-R7943], which “response in compound screen, number of cells seven days after induction” value (iPSC line AG02261) is on record?
Answer: Its value is “showed responses at specific doses”.

Question: For `C=C1c2cccc(O)c2C(=O)C2=C(O)[C@]3(O)C(=O)C(C(N)=O)=C(O)[C@@H](N(C)C)[C@@H]3[C@@H](O)[C@H]12` [Methacycline, methacycline], which “effect on endoderm induction at high concentration” value (iPSC line AG02261) is on record?
Answer: The value was “mostly toxicity”.

Question: For `CN(C)c1ccc(O)c2c1C[C@H]1C[C@H]3[C@H](N(C)C)C(O)=C(C(N)=O)C(=O)[C@@]3(O)C(O)=C1C2=O` [Minocycline, minocycline], which “effect on endoderm induction at high concentration” value (iPSC line AG02261) is on record?
Answer: Its value is “mostly toxicity”.

Question: `COc1ccc(C[C@H](N)C(=O)N[C@H]2[C@@H](O)[C@H](n3cnc4c(N(C)C)ncnc43)O[C@@H]2CO)cc1` [Puromycin] was tested. Which “ability to enhance survival of cells during induction to endoderm, other antibiotic classes compared to doxycycline” value (iPSC lines [2]) did it give?
Answer: Its value is “only Gentamicin showed a similar statistically significant ability”.

Question: With `N.N.N.N.N.N.N.N.N.N.N.N.N.N.[Cl-].[Cl-].[Cl-].[Cl-].[Cl-].[Cl-].[O-2].[O-2].[Ru+3].[Ru+3].[Ru+4]` [Ruthenium Red] as the molecule, how does the “response in compound screen, number of cells seven days after induction” value (iPSC line AG02261) read?
Answer: The value was “showed responses at specific doses”.

Question: Which results are given for `C[C@@H](N)[C@H]1CC[C@H](C(=O)Nc2ccncc2)CC1` [Y-27632]?
Answer: effect of adding Y-27632 to the protocol including doxycycline (iPSC lines [2]): promoted the efficient and complete differentiation of these cell lines; effect of adding Y-27632 to the protocol including doxycycline (iPSC lines [2]; listed as Y27632): led to the rescue of additional stem cell lines; rescue of induction by Y-27632 alone (iPSC lines [1]; resistant lines): does not produce the same robust induction; also recorded: not able to rescue resistant lines

Question: How did the “ability to enhance survival of cells during induction to endoderm, other antibiotic classes compared to doxycycline” value (iPSC lines [2]) turn out when `CC1(C)S[C@@H]2[C@H](NC(=O)[C@H](N)c3ccccc3)C(=O)N2[C@H]1C(=O)O` [ampicillin] was run?
Answer: Its value is “only Gentamicin showed a similar statistically significant ability”.

Question: Which “number of cells seven days after induction compared to the plating density at day 0 (compound screen)” value (iPSC lines [2]; antibiotics and mitochondria-affecting compounds compared to doxycycline, FIG. 2B) does the source give for Gentamicin [Gentamycin] here?
Answer: Its value is “strong increasing dose response”.
